Experimental data reported in patent US20260306460A1, “COMPOSITION FOR REMOVING AND INHIBITING SENESCENT CELLS, AND USES THEREOF” (LIFECEUTIX CO., LTD., priority 2023, published 2026).

Key:
[1] = tested on: naturally aged C57BL6J mice; test: Osteoclast marker mRNA (Ctsk, Ocstamp, Oscar, Rank, Trap) in femur of naturally aged mice, Example 21-14, Table 29; format: in vivo, mouse; details: left femur, untreated aged = 100%
Experimental: 22-month-old female C57BL6J mice (KRIBB Laboratory Animal Resource Center) were acclimated to the experimental environment for one week, after which the aged mice were randomly assigned to experimental and control groups. Eight-week-old, non-aged mice served as controls. LX-403 was mixed in a 10% ethanol solution of PEG400 and administered orally at a concentration of 25 mg/kg daily for 21 days, or administered to the skin, joints, or eyes at a concentration of 1 μM. LX-1801 was mixed in distilled water with 4% DMSO, 30% PEG300, and 5% Tween80 and administered to the skin, joints, or eyes at a concentration of 0.4 μM daily for 21 days. LX-2001 was mixed in PBS and administered to the skin, joints, or eyes at a concentration of […] daily for 21 days. LX-2002 was mixed in distilled water with 4% DMSO, 30% PEG300, and 5% Tween80 and administered to the skin, joints, or eyes at a concentration of 2 μM daily for 21 days. […] LX-2005 was mixed in distilled water with 4% DMSO, 30% PEG300, and 5% Tween80 and administered to the skin, joints, or eyes at a concentration of 90 μM daily for 21 days. LX-2007 was mixed in distilled water with 4% DMSO, 30% PEG300, and 5% Tween80 and administered to the skin, joints, or eyes at a concentration of 90 μM daily for 21 days. […] LX-3002 was mixed in distilled water with 4% DMSO, 30% PEG300, and 5% Tween80 and administered orally at a concentration of 10 mg/kg daily for 21 days. […] LX-5411 was mixed in 5% PBS and administered orally at a concentration of 10 mg/kg daily for 21 days or administered to the skin, joints, or eyes at a concentration of 3 μM. LX-5701 was mixed in PBS and administered orally at a concentration of 360 mg/kg daily for 21 days. LX-6807 was mixed in saline and administered intraperitoneally at a concentration of 1 mg/kg daily for 21 days. LX-2101 or LX-2102 was mixed in PBS solution with 5% DMSO and administered intraperitoneally at a concentration of 20 mg/kg or 10 mg/kg, respectively, daily for 21 days. The control group received only the solution in the same volume. After the end of drug administration, the methods described in each example below were performed.
Senile osteoporosis is a metabolic bone disease characterized by decreased bone density and a high fracture risk. It occurs in both men and women with aging. The accumulation of senescent cells is known to contribute to osteoporosis by increasing bone resorption by osteoclasts and decreasing bone formation by osteoblasts through the senescence-associated secretory factor (SASP). RNA was extracted from the left femur of mice as described in Example 7-2 WO2023-085787 A1, and qRT-PCR was performed using the synthesized cDNA. […] The amount of each factor after aging was induced was calculated as 100% and compared with the amount of each factor after treatment with the test compound.

[2] = tested on: cigarette smoke-induced COPD C57BL6J mice; test: Cigarette smoke COPD in mice (p16, IL6 mRNA, alveoli size), Example 25, Table 49; format: in vivo, mouse; details: for Airspace enlargement: average size of alveoli, untreated 38.7 (±0.6); for IL6 mRNA / p16 mRNA: lung, daily for 21 days, untreated 100%
Experimental: Eight-week-old male C57BL6J mice (KRIBB Laboratory Animal Resource Center) were acclimated to the experimental environment for one week. After exposure to standard cigarette smoke (costa monitoring cigarette 7) for 5 hours per day, 5 days per week for 6 months, chronic obstructive pulmonary disease (COPD) was induced. Mice with induced COPD were randomly assigned to experimental and control groups. […] LX-3002 was mixed in distilled water with 4% DMSO, 30% PEG300, 5% tween80 and administered orally at a concentration of 10 mg/kg daily for 21 days. LX-5701 was mixed in PBS and administered orally at a concentration of 360 mg/kg daily for 21 days. LX-6807 was mixed in saline and administered intraperitoneally at a concentration of 1 mg/kg daily for 21 days. The control group received only the solution in the same volume. After the end of drug administration, mice were sacrificed in the same manner as in Example 7-2 of WO2023-085787 A1, RNA was extracted from lung tissue, and qRT-PCR (quantitative real-time PCR) was performed and analyzed using the synthesized cDNA. […] The amount of mRNA after aging was calculated as 100%, and the results after treatment with the test compound were compared. Furthermore, paraffin sections were stained with hematoxylin/eosin (H/E), and the size of alveoli was measured under a light microscope to assess the degree of lung function impairment.

| Molecule | Ctsk mRNA (%) [1] | Ocstamp mRNA (%) [1] | Oscar mRNA (%) [1] | Rank mRNA (%) [1] | Trap mRNA (%) [1] | Airspace enlargement [2] | IL6 mRNA [2] | p16 mRNA [2] |
| --- | --- | --- | --- | --- | --- | --- | --- | --- |
| CC1(C)CC[C@]2(NC(=O)C(C)(F)F)CC[C@]3(C)[C@H](C(=O)C=C4[C@@]5(C)C=C(C#N)C(=O)C(C)(C)[C@@H]5CC[C@]43C)[C@@H]2C1 [LX-2101, Omaveloxolone] | 61 (±12.1) % | 69 (±10.3) % | 79 (±5.6) % | 75 (±2.7) % | 50 (±14.2) % | – | – | – |
| CCCC\C=C/C=C/C=C\CCCCCCCC(=O)O [LX-2707, Punicic acid] | 64 (±8.6) % | 73 (±3.2) % | 54 (±3.4) % | 67 (±3.4) % | 51 (±5.2) % | 36.4 (±1.9) μm | 76 (±6.7) % | 78 (±5.5) % |
| O=C1C2CCN(CC2)C1CNC(=O)C(F)(F)F (stereo not shown) [LX-5701] | 57 (±13.0) % | 70 (±6.7) % | 72 (±7.2) % | 68 (±10.4) % | 63 (±18.4) % | 31.9 (±2.4) μm | 59 (±16.8) % | 70 (±7.8) % |
| Cc1cccc([C@H](C)c2cnc[nH]2)c1C [LX-6807, Dexmedetomidine] | 42 (±2.7) % | 53 (±5.1) % | 37 (±2.0) % | 57 (±3.9) % | 48 (±2.1) % | 30.4 (±1.5) μm | 48 (±5.6) % | 68 (±2.4) % |
| Tocofersolan [LX-3001] | 67 (±7.2) % | 75 (±3.3) % | 61 (±4.7) % | 56 (±6.3) % | 78 (±6.8) % | 37.1 (±2.7) μm | 79 (±9.9) % | 83 (±5.0) % |
